Source: patent publication US9884063B2, “Amido-substituted azole compounds” (Bayer Pharma Aktiengesellschaft, priority 2014, dated 2018)

Key:
[1] = test system: HEK293 FOP control reporter cell line; assay: HEK293 FOP Assay (FOP control vector luciferase reporter); type: cell-based; settings: Homo sapiens; HEK293 FOP control reporter cell line, 16 hours incubation, compound dilution series 50 μM to 15 nM
How it was run: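 Compound series 50 μM to 15 nM, 3.16-fold steps, were diluted in CAFTY buffer (pH 7.4, 2 mM Ca2+, 0.01% BSA) and tested alongside the TOP reporter line. Human Wnt-3a was added at 2500–5 ng/ml in two-fold steps. The control HEK293 line stably holds an FOP vector whose TCF elements are randomized and non-functional.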

TNKS1 = molecular target: T1, TNKS1 (Homo sapiens, UniProt O95271); assay: Modified TNKS1 Assay 2 (auto-parsylation, [3H]-NAD+ SPA); type: biochemical; settings: 6 nM TNKS1, 96 well
T1 sequence (O95271 1-1327): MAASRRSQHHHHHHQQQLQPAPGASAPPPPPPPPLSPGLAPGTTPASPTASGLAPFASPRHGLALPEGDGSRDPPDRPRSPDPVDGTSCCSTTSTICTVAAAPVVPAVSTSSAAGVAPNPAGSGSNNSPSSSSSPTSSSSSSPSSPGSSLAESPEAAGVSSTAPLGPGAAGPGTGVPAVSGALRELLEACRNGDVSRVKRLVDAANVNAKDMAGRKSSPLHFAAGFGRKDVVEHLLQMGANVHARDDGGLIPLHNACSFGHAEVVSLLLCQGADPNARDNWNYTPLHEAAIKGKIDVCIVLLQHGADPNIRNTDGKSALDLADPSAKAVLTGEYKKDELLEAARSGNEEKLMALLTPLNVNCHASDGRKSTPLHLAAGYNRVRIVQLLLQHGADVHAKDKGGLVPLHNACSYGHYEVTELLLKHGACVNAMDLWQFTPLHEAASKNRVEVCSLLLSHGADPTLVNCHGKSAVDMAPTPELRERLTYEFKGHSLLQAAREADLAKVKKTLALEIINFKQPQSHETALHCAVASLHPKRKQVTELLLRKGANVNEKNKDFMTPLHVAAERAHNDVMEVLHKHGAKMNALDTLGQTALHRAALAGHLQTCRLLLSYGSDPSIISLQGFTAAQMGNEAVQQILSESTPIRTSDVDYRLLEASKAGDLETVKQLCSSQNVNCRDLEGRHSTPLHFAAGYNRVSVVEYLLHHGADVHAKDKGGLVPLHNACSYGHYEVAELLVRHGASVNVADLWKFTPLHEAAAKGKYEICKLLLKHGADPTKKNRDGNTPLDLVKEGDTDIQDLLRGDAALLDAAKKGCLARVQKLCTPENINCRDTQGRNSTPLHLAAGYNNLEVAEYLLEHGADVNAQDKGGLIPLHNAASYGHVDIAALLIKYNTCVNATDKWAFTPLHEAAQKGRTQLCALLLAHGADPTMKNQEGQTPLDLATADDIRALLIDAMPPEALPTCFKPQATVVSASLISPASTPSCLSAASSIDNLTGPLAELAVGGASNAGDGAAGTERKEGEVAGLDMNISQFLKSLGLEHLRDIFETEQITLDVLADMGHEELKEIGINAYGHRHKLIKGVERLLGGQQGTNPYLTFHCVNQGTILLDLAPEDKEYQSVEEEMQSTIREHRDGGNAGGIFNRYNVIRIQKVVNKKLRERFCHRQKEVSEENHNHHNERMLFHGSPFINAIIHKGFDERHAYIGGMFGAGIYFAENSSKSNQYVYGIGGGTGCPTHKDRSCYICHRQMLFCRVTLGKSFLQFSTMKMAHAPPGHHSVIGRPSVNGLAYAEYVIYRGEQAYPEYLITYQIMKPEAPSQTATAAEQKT

IC50 (TNKS1): 0.68 µM
SMILES: CN1CC2(C1)CN(C(=O)c1nc[nH]c1C(=O)Nc1ccc(NC(=O)c3ccc(F)cc3Cl)cc1)C2 [Example 46, N-{4-[(2-chloro-4-fluorobenzoyl)amino]phenyl}-4-[(6-methyl-2,6-diazaspiro[3.3]hept-2-yl)carbonyl]-1H-imidazole-5-carboxamide]
IC50 [1]: 12 µM
